The values below come from patent US20240325359A1, “ACAT1 INHIBITOR AND METHOD OF USE IN THE TREATMENT OF DISEASE” (Trustees of Dartmouth College, priority 2023, published 2024).

A word on the EC50: it is the midpoint of the concentration-response curve. The low end stands for greater potency, the high end for weaker potency.

Series [1] deals with T1, human ACAT2 (Homo sapiens, UniProt O75908).
T1 sequence (O75908 1-522): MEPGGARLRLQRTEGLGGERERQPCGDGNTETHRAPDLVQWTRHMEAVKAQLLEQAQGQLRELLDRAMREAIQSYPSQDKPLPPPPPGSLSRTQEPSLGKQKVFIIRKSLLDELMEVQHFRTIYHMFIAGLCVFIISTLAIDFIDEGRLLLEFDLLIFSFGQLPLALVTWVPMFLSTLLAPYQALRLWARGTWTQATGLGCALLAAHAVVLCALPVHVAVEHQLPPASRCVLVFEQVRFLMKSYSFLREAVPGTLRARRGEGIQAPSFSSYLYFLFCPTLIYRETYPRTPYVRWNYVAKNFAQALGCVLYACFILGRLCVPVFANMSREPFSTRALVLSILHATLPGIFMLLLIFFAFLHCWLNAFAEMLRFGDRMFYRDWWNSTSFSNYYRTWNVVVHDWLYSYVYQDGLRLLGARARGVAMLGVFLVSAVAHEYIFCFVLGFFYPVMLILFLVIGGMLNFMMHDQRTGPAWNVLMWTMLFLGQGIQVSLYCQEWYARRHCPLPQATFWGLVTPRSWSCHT
Nature of the series: Cholesteryl [3H]-oleate formation in CHO cells stably expressing human ACAT2.
Protocol: (§1) Cells were placed in 10% serum for two days at 37° C. and further incubated with various concentrations of F24 as a stock solution in DMSO for 2 hours. Subsequently, a complex of [3H]-oleic acid and BSA (serving as precursor of oleyl CoA as substrate of ACAT) was fed to the cells for 2 hours. Cells were extensively washed and cellular lipids were extracted with organic solvents. Radioactivity of cholesteryl [3H]-oleate was separated by thin-layer chromatography and determined by scintillation counting.

The test system of series [2] is ACAT activity in the brain. Nature of the series: ACAT inhibition in mouse tissues after single IV of stealth nanoparticles. In kind it is in vivo, mice. The protocol:
Shown is the efficacy of F12511 vs. F24 encapsulated in nanoparticle and IV delivered to mice. Four hours after IV, various tissues were isolated to monitor ACAT inhibition measurement. Mice were perfused before brains were isolated. N=2-3 WT mice/group. Statistical analysis, 2-way ANOVA. **P<0.01; ***P<0.001.
Nanoparticle Formation. Nanoparticles were prepared according to a general method (Gülçür, et al. (2013) Drug Deliv. Transl. Res. 3(6):562-574; Jhaveri & Torchilin (2014) Front. Pharmacol. 5:77) with modifications. Using a clean glass tube (9 mL capacity), 60 mg of DSPE-PEG2000 (Laysan Bio, Inc (mPEG-DSPE, MW 2,000)) was dissolved in 500 μL of ethanol (EtOH) for a working concentration of 60 mM. […]
Nanoparticle Analysis. […] The content of compound was determined by extrapolation from a standard curve of a concentration gradient of the respective compound produced in the same TLC plate. The plate was stained with iodine and quantified using ImageJ. The TLC/iodine stain method detected compound, and DSPE-PEG2000/PC separately, thus allowing for encapsulation efficiency determination.
Delivery of F24 in Mice via Nanoparticles. […] Four hours after IV delivery, different tissues were isolated and the percent of ACAT inhibition was assessed.

Series [3] addresses T2, human ACAT1 (Homo sapiens, UniProt P35610).
T2 sequence (P35610 1-550): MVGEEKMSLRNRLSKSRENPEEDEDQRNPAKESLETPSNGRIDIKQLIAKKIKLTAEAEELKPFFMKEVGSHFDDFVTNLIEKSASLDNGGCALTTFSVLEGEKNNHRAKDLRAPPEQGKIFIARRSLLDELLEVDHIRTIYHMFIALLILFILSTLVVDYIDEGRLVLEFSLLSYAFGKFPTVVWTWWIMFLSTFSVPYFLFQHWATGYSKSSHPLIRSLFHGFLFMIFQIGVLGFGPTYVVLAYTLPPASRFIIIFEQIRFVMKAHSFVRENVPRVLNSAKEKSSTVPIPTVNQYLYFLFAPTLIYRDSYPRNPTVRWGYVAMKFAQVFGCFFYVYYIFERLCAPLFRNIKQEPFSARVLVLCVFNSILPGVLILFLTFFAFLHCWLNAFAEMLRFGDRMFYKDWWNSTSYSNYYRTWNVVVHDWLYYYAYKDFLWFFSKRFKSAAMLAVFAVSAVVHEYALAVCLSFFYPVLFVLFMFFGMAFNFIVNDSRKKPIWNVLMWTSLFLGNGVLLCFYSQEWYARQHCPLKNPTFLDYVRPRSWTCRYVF
Put plainly: Cholesteryl [3H]-oleate formation in CHO cells stably expressing human ACAT1.
Protocol: as §1

For `CCCCCCCCCCCCS[C@H](C(=O)Nc1cc(C)c(O)c(C)c1C)c1ccccc1` [F12511, reference compound], in series [1], a half-maximal response (EC50) required 55 nM.

On to `CCCCCCCCCCCCSC(C(=O)Nc1c(SC)cc(C)nc1SC)c1ccccc1` (stereo not shown) [F24], for which the ACAT inhibition in series [2] (adult C57BL/6 mice, single IV of nanoparticle F24 at low dose 0.9 mM, four hours after IV, brain) amounted to 70%. For the same molecule, the brain permeability result in series [2] (mice, delivered IV via stealth nanoparticle) is reported as “brain-permeable”. For the same molecule, the 50% effective concentration (EC50) stood at 6 nM in series [3] and 11 nM in series [1]. In series [3] (ratio of EC50 values, 6 nM vs. 39 nM), the “fold more potent than F12511 in inhibiting ACAT1” value is reported as “seven-fold”. The “fold more potent than F12511 in inhibiting human ACAT2” value in series [1] (ratio of EC50 values, 11 nM vs. 55 nM) is on record as “five-fold”.
